Measurements published in PubChem BioAssay (NCI).
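Five concentrations, 48 hours, 96-well plates. GI50 marks 50% less growth. The concentration for full growth arrest is given as TGI.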

What was measured:
Test in all cases: growth of human tumour cells (NCI), 48 h
[1] = tested on: 786-0 renal
[2] = tested on: A498 renal
[3] = tested on: A549 NSCLC
[4] = tested on: ACHN renal
[5] = tested on: BT-549 breast
[6] = tested on: CAKI-1 renal
[7] = tested on: CCRF-CEM leukemia
[8] = tested on: COLO 205 colon
[9] = tested on: DU-145 prostate
[10] = tested on: EKVX NSCLC
[11] = tested on: HCC-2998 colon
[12] = tested on: HCT-116 colon
[13] = tested on: HCT-15 colon
[14] = tested on: HL-60(TB) leukemia
[15] = tested on: HOP-62 NSCLC
[16] = tested on: HOP-92 NSCLC
[17] = tested on: HS 578T breast
[18] = tested on: HT29 colon
[19] = tested on: IGROV1 ovarian
[20] = tested on: K-562 leukemia
[21] = tested on: KM12 colon
[22] = tested on: LOX IMVI melanoma
[23] = tested on: M14 melanoma
[24] = tested on: MALME-3M melanoma
[25] = tested on: MCF7 breast
[26] = tested on: MDA-MB-231 breast
[27] = tested on: MDA-MB-435
[28] = tested on: MOLT-4 leukemia
[29] = tested on: NCI-H226 lung

SMILES: CCN1C(C)(C)CC(Oc2ccc(C(=O)Nc3ccc(NC(=O)Nc4cc(C(C)(C)C)on4)cc3)nc2)CC1(C)C
- GI50 [1]: 1.66 µM
- TGI [1]: 3.52 µM
- GI50 [2]: 1.95 µM
- TGI [2]: 11.6 µM
- GI50 [3]: 2.71 µM
- TGI [3]: 7.4 µM
- GI50 [4]: 2.05 µM
- TGI [4]: 4.37 µM
- GI50 [5]: 4.53 µM
- TGI [5]: 10.3 µM
- GI50 [6]: 1.98 µM
- TGI [6]: 5.35 µM
- GI50 [7]: 2.85 µM
- TGI [7]: 7.77 µM
- GI50 [8]: 1.83 µM
- TGI [8]: 3.82 µM
- GI50 [9]: 1.87 µM
- TGI [9]: 3.72 µM
- GI50 [10]: 3.6 µM
- TGI [10]: 20.9 µM
- GI50 [11]: 1.9 µM
- TGI [11]: 4.17 µM
- GI50 [12]: 1.99 µM
- TGI [12]: 3.68 µM
- GI50 [13]: 1.71 µM
- TGI [13]: 3.72 µM
- GI50 [14]: 2.02 µM
- TGI [14]: 4.38 µM
- GI50 [15]: 1.67 µM
- TGI [15]: 3.87 µM
- GI50 [16]: 2.38 µM
- TGI [16]: 8.09 µM
- GI50 [17]: 1.44 µM
- TGI [17]: 6.06 µM
- GI50 [18]: 1.58 µM
- TGI [18]: 3.86 µM
- GI50 [19]: 6.86 µM
- TGI [19]: 47.5 µM
- GI50 [20]: 1.69 µM
- TGI [20]: 3.76 µM
- GI50 [21]: 2.91 µM
- TGI [21]: 9.35 µM
- GI50 [22]: 1.78 µM
- TGI [22]: 3.31 µM
- GI50 [23]: 1.91 µM
- TGI [23]: 3.63 µM
- GI50 [24]: 1.61 µM
- TGI [24]: 3.37 µM
- GI50 [25]: 2.14 µM
- TGI [25]: 5.55 µM
- GI50 [26]: 2.02 µM
- TGI [26]: 4.82 µM
- GI50 [27]: 1.82 µM
- TGI [27]: 3.47 µM
- GI50 [28]: 1.93 µM
- TGI [28]: 5.24 µM
- GI50 [29]: 11.2 µM
- TGI [29]: 30.7 µM
